Test results: patent US20240409669A1, “Neutralizing Trivalent Protein-DNA Molecules (TRI-PDBODY) for SARS-COV-2 Infection Treatment” (priority 2021, published 2024)

Target: RBD of spike protein binding with ACE2 protein (Severe acute respiratory syndrome coronavirus 2, UniProt P0DTC2)

Substance: Bovine serum albumin [BSA]
- Competitive inhibition of ACE2 binding with RBD of spike: non-competitive binding signal
